Test results reported in patent US20230226135A9, “ACETYLCHOLINE MODULATION OF IMMUNE FUNCTION” (BCell Solutions, Inc., priority 2019, published 2023).
“Also recorded” adds a separate entry of the source.

How the values were obtained:
[1] = Dosing formulation storage and stability; type: physicochemical; details: 5 mg/mL DMSO stock
Method: Test Article Formulation Instructions & Calculations: Peptide dosing solution (0.2 mg/mL) was made fresh daily within 1 hour of use by diluting 0.09 mL of 5 mg/mL DMSO stock into 2.11 mL sterile saline. DMSO stock was kept at 4 C, then refrozen (to avoid repeated freeze-thaw cycles). Still, stock was relatively “solid” even at 4 C.
MLA antagonist dosing solution (0.6 mg/mL) was made on Day 2 by diluting the entire 5 mg in the sealed vial with 8.3 mL of sterile saline and aliquoting out ˜1.1 mL in each of seven 2 mL cryovials and freezing at −20 C. Four vials were used in the experiment, each thawed within 1 hour of use. Three vials remain frozen.
Dosing Formulations and Vehicle Storage & Stability: Saline vehicle is stable at 4 C for months. Peptide dosing solutions were made up and used fresh daily. […] MLA frozen “stock” solutions were stable for up to 1 month.

[2] = tested on: IL1b, IL6 and IL17; assay: TBI-induced changes in brain cytokines; type: in vivo, mice; details: CAP i.p. 30 minutes after TBI, brains harvested 24 hours after TBI; not significant, under-powered
Method: FIG. 10. TBI-induced changes in brain cytokines. TBI induced increase in brain IL1b, IL6 and IL17 are reversed by CAP. Cap was administered i.p. 30 minutes after TBI and brains were harvested 24 hours after TBI.
In a separate study, preeclampsia was induced in pregnant mice by injection of either the toll-like receptor 3 (TLR3) agonist, PolyI:C, or with the toll-like receptor 8 ([…]) agonist R837. […] It is pertinent to note that this power issue has been corrected.

[3] = tested on: blood brain barrier (BBB); assay: Intravital microscopy of BBB permeability and lymphocyte adhering/rolling in pial venules; type: in vivo, C57 BL/6J mice
Description: Whether intranasal infection with Streptococcus pyogenes would induce blood-brain barrier permeability in C57 BL/6J mice by a TLR-dependent mechanism was examined. Immediately following craniotomy, mice were placed under an intravital microscope to study vascular permeability and leukocytes. Permeability of cerebral blood vessels was observed using FITC-dextran fluorescent dye and, tracing of leukocytes is observed by labeling such cells with Rhodamine-6G. Intranasal infection with Streptococcus pyogenes (gram positive) increased BBB permeability (FIG. 4) and the number of adherent or rolling lymphocytes (FIG. 4) within 24 hours post-infection, compared to saline treated controls.
Methods: To test the hypothesis that intranasal infection may increase BBB permeability, we exposed mice to GAS via intranasal infection with Streptococcus pyogenes (GAS). We assessed BBB permeability using intravital microscopy, and we characterized the immune response to GAS using flow cytometric analysis of nasal associated lymphoid tissue (NALT), spleen, and brain.
Intranasal infection: Isoflurane gas was employed to briefly anesthetize mice (1-2 minutes). Once anesthetized, 7.5 uL of streptococcal bacterial suspension (OD600=0.5-0.6) was placed on each nares (outer nostril) of mouse. Control mice received intranasal inoculation with vehicle (PBS). The droplets were inhaled into nasal sinuses. This small volume avoids inoculation of the lungs, but reproducibly results in colonization of nasal-associated lymphoid tissue (NALT, Park 2003; Wang 2010).
Intraperitoneal injection: The TLR 1/2 agonist, Pam-3-Cys (25 ug/mouse; Pam3CSK4, InvivoGen, San Diego Calif.) was intraperitoneally (right side) injected into mice 24 hours before intravital microscopy. P3C causes immune cell activation and polycolonal expansion of B-lymphocytes by Toll-Like receptor ligation (Newell 2010). Control mice received equal volume of vehicle (PBS) intraperitoneally.
MHC class II-targeted proprietary peptide (TPP, Elim Biopharmaceuticals Inc., Hayward Calif.; also see Newell 2010) was administered intraperitoneally (5 ug/mouse, left side), sometimes in conjunction with P3C (right side). TPP was dissolved in DMSO for a final concentration of 2.5% DMSO in PBS. Control mice received vehicle (2.5% DMSO in PBS) intraperitoneally.
Preparation of Mice: Mice were anesthetized with an (i.p.) injection of 50% urethane (Sigma-Aldrich, U2500) in PBS ([…]) and maintained on heating pad. Anesthetic plane was assessed throughout preparation and experiments, by response to toe pinch. If needed, urethane supplement was given at 10% of original dose volume. To prepare mice tails for intravenous (i.v.) dye injection we maintained anesthetized mice on a heating pad for 10-15 minutes, and then briskly wiped tails (toward tail-end) with 70% ethanol wipes to remove scales/hair and increase vasodilation. Immediately following tail wiping, Fluorescein dextran 10 kDa (10 mg/mL, Sigma-Aldrich, FD10S) was administered (2 uL/g mouse) via right lateral tail vein and, Rhodamine 6G (0.2 mg/mL, Sigma-Aldrich, 83697) was administered (1.6 uL/g mouse) via left lateral tail vein. When needed, tail was wiped multiple times to ensure clear visualization of tail veins. Following successful (i.v.) injection of dyes, mice underwent craniotomy.
Craniotomy: A craniotomy (removal of a small area of skull) was performed to expose the cerebrum and allow imaging of cerebral microvasculature (specifically pial vessels of pia mater). First, an incision across the midline of the scalp was made to expose the right parietal bone. The skull was then carefully marked with a waterproof marker, designating the area, 1 mm posterior from the Bregma and 4 mm lateral from the midline, to be removed (craniotomy diameter: 2.5 mm). Next, the craniotomy was performed with a drill ensuring the dura mater was not cut. […]

[4] = tested on: IL1β and IL6; assay: Collagen-induced arthritis model (collagen emulsion in CFA), pro-inflammatory cytokines; type: in vivo, mice
Method: FIG. 8. Collagen-induced arthritis model. Animals were injected with a collagen emulsion in Complete Freunds Adjuvant (CFA) and treated with either CAP during early disease development or once arthritic disease was established.
Central to the overarching hypothesis, is the anti-inflammatory effects of CAP.
Rheumatoid arthritis (RA), an autoimmune condition caused by the immune system attacking healthy body tissue by directing antibodies to the lining of the joints, where they attack the tissue surrounding the joint. In an established mouse model of RA, induced by injection of collagen and Complete Freunds Adjuvant (CFA), there is an increase in the pro-inflammatory cytokines, IL1B and IL6 (FIG. 17). […] Therefore, different doses of CAP appear to be effective in the developing versus the established stages of the disease. These changes were accompanied by a reduction in peripheral B cells. These findings are important because IL6 and IL1B are differentially elevated depending on the severity of various infections, such as SARS-CoV-2. Thus, testing different doses of CAP at different stages of infection will be helpful to optimizing translational therapy.

[5] = TPP 5 ug/mouse i.p., 24 hours, listed as TPP

FRIMAVLAS [CAP, α7nAChR agonist]
stability of DMSO stock [1]: stable for a few months
brain IL1b, IL6 and IL17 [2]: trend toward a reduction; also recorded: reversed
P3C-induced lymphocyte rolling ([3]; TPP 5 ug/mouse i.p. with P3C, 24 hours): reduced
P3C-induced lymphocyte adhering ([3]; TPP 5 ug/mouse i.p. with P3C, 24 hours, listed as TPP): reduced; also recorded: significantly reversed
streptococcal infection-induced lymphocyte adhering [3, 5]: significantly reversed
streptococcal infection-induced lymphocyte rolling [3, 5]: reversed; also recorded: reduced
size of adherent cells ([3]; TPP in infected or P3C treated mice): did not attenuate
reducing IL1β and IL6 ([4]; 0.2 mg/kg i.p., developing stage): most efficacious
reducing IL1β and IL6 ([4]; 20 mg/kg i.p., established stage): most efficacious
peripheral B cells ([4]; RA model, CAP i.p.): reduction
cytokines ([4]; early or established disease, particularly in the established (late stage) model): dose dependent reduction
reducing IL1B and IL6 ([4]; i.p. 2 mg/kg, developing stage): most efficacious
